# Laboratory results from patent US20040077634A1, “Treatment of diseases characterized by excessive or insufficient cell death” (priority 2001, published 2004).
# Columns and labels:
# MCF-neo cells = experiment: TNF-induced cell death of MCF-neo cells; type: cell-based
# Method: (§1) The ability of compound f to inhibit cell death was examined in MCF-neo and MCF-casp3 cells. […] To analyse the mechanism of the action of compound f in alive cells, MCF-casp3 cells were treated with TNF (5 ng/ml) in the presence of 50 μM compound f and the activity of caspase-3-like proteases was measured by a DEVDase enzyme assay.
# recombinant caspase-3 = target: T1, recombinant caspase-3 (Homo sapiens, UniProt P42574); experiment: Recombinant caspase-3 activity, cleavage of DEVD-AFC; type: biochemical; details: 25 to 100 μM; DEVD-AFC substrate
# T1 sequence (P42574 29-175 limits assumed): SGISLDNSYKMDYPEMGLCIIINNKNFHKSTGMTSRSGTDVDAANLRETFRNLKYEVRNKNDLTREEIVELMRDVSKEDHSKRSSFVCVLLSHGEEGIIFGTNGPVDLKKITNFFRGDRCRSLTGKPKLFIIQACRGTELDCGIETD
# T1 sequence (P42574 176-277 limits assumed): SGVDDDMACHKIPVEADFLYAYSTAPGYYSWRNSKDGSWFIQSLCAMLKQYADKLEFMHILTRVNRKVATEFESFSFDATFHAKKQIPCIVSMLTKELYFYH
# Method: To test if compounds a, f, and g were specific caspase inhibitors, recombinant caspase-3 and caspase-9 were incubated with the three compounds and the enzymatic activities of caspases were monitored by analysing the cleavage of the caspase-3 substrate DEVD-AFC or the caspase-9 substrate LEHD-AFC, respectively.
# [1] = test system: WEHI-S fibrosarcoma cells; experiment: TNF-induced caspase-independent cell death of WEHI-S fibrosarcoma cells; type: cell-based; details: 50-10 μM
# [2] = test system: DEVDase (caspase-3-like protease); experiment: Inhibition of DEVDase in cytochrome c/dATP-activated Hela cytosolic extract (method 1); type: biochemical
# Method: Hela cells are grown in large petri dishes until subconfluency. Cells are then harvested and washed in PBS. The cell pellet is resuspended in equal volumes of ice-cold isotonic lysisbuffer (SCA; 20 mM Hepes-KOH pH 7.5, 10 mM KCl, 1.5 mM MgCl2, 1 mM EDTA, 1 mM EGTA, 250 mM sucrose, 1 mM DTT, 10 μg/ml aprotinin, 1 μg/ml leupeptin, 1 μg/ml pepstatin A, 100 μg/ml peta-block), incubated on ice for 30 min and lysed by approx. 30 strokes of a dounce homogenizer. The lysate is then centrifuged at 750 g for 10 min, and the supernatant thereof at 10,000 g for 10 min and at 20,000 g for 30 min. The clarified supernatant is removed carefully and stored in aliquots at −80° C. Activation of endogene caspases is induced by addition of 1 mM dATP and 1 μM horse heart cytochrome c to cytosolic extract (protein concentration; 5-10 mg/ml) in the presence of DEVD-AFC and the compound (final concentration 100 μM). Activated DEVD'ases (AFC release) is measured by fluorometry in 96-well plates at 37° C. After end measurements 2× LSB-Mechaptoethanol are added to the samples for assessment of caspase processing by immunoblot analysis. Percent inhibition is calculated as follows: [formula]
# MCF-casp3 cells = experiment: TNF-induced cell death of MCF-casp3 cells
# Method: as §1
smiles,measurement,setting,value
"O=C(Nc1cccc(C(F)(F)F)c1)Nc1cc(Cl)ccc1C(=O)O [Compound f, [N-(2-Carboxy-5-chlorophenyl)-N′-(3-trifluoromethylphenyl)]urea]",cell death induced by TNF,"MCF-neo cells; 1 ng/ml TNF, 50 μM",completely blocked
same,protection against TNF-induced cell death,"MCF-neo cells; 5 ng/ml TNF, 50 μM",protection was still significant
same,inhibition of TNF-induced cell death,MCF-neo cells; 10 ng/ml TNF,no inhibition
same,inhibition of recombinant caspase-3 activity,recombinant caspase-3,failed to inhibit
same,inhibition of the TNF-induced cell death,[1],No inhibition
same,inhibition of the DEVDase activity (dose dependence),[2]; cell extracts stimulated with Cc/dATP,dose-dependent inhibition
same,% Inhibition,"[2]; compound final concentration 100 μM, 1 mM dATP and 1 μM cytochrome c, DEVD-AFC",94%
same,cell death induced by TNF,"MCF-casp3 cells; 1 ng/ml TNF, 50 μM",completely blocked
same,protection against TNF-induced cell death,"MCF-casp3 cells; 5 ng/ml TNF, 50 μM",protection was still significant
same,inhibition of TNF-induced cell death,MCF-casp3 cells; 10 ng/ml TNF,no inhibition
